Results taken from patent publication US9695155B2, “Herbicidal substituted pyrimidinyloxy benzene compounds” (E. I. DU PONT DE NEMOURS AND COMPANY, priority 2013, dated 2017).

Key:
lambsquarters = test: Test C postemergence; format: in vivo, Chenopodium album
Outline: (§1)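 Injury was assessed visually against controls 13 to 15 days after application, with 0 meaning no effect and 100 full control; missing entries are shown as a dash. Preemergence sprays hit seeded loam–sand soil, postemergence sprays hit 1- to 4-leaf plants.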

large (Lg) crabgrass [1] = test: Test A preemergence; format: in vivo, Digitaria sanguinalis; conditions: for Crabgrass, Large plant response rating: 500 g ai/ha
Outline: (§2)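 Pre- and postemergence greenhouse screen. Soil: loam + sand. Spray carrier: solvent mixture, non-phytotoxic, with surfactant. Post timing at 1–2 leaves, height 2–10 cm. Readout: visual injury on a 0–100 scale roughly 10 days after application, untreated plants as reference.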

chickweed = test: Test C postemergence; format: in vivo, Stellaria media; conditions: for Chickweed plant response rating / Plant response rating, Chickweed: scale 0 to 100 (0 no effect, 100 complete control)
Outline: as §1

wild oat = test: Test C postemergence; format: in vivo, Avena fatua
Outline: as §1

barnyardgrass [2] = test: Test C postemergence; format: in vivo, Echinochloa crus-galli; conditions: for Barnyardgrass plant response rating / Plant response rating, Barnyardgrass: scale 0 to 100 (0 no effect, 100 complete control)
Outline: as §1

pigweed = test: Test A postemergence; format: in vivo, Amaranthus retroflexus; conditions: 0 to 100 scale where 0 is no effect and 100 is complete control; for Plant response rating, Pigweed: 500 g ai/ha
Outline: as §2

barnyardgrass [3] = test: Test A preemergence; format: in vivo, Echinochloa crus-galli; conditions: for Barnyardgrass plant response rating: 500 g ai/ha
Outline: as §2

barnyardgrass [4] = test: Test A postemergence; format: in vivo, Echinochloa crus-galli; conditions: 0 to 100 scale where 0 is no effect and 100 is complete control
Outline: as §2

giant foxtail = test: Test C postemergence; format: in vivo, Setaria faberii; conditions: for Foxtail, Giant plant response rating / Plant response rating, Foxtail, Giant: scale 0 to 100 (0 no effect, 100 complete control)
Outline: as §1

sedge, umbrella = test: Test B flooded paddy test; format: in vivo, Cyperus difformis; conditions: Flood, 250 g ai/ha; 0 to 100 scale where 0 is no effect and 100 is complete control
Outline: (§3)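 Scores from 0 (no effect) to 100 (complete control) are visual comparisons with controls, taken 13 to 15 days after compound was applied into floodwater 3 cm deep around 2-leaf plants.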

large (Lg) crabgrass [5] = test: Test C postemergence; format: in vivo, Digitaria sanguinalis; conditions: for Crabgrass, Large plant response rating / Plant response rating, Crabgrass, Large: scale 0 to 100 (0 no effect, 100 complete control)
Outline: as §1

barnyardgrass [6] = test: Test B flooded paddy test; format: in vivo, Echinochloa crus-galli; conditions: Flood, 250 g ai/ha; 0 to 100 scale where 0 is no effect and 100 is complete control
Outline: as §3

yellow nutsedge = test: Test C postemergence; format: in vivo, Cyperus esculentus
Outline: as §1

rice = test: Test B flooded paddy test; format: in vivo, Oryza sativa; conditions: Flood, 250 g ai/ha; 0 to 100 scale where 0 is no effect and 100 is complete control
Outline: as §3

morningglory = test: Test C postemergence; format: in vivo, Ipomoea coccinea
Outline: as §1

[7] = 16 g ai/ha, postemergence, 0 is no effect, 100 is complete control
[8] = 31 g ai/ha, postemergence, visual rating, scale 0 to 100 (0 no effect, 100 complete control), 13 to 15 days
[9] = 125 g ai/ha, postemergence, visual rating, scale 0 to 100 (0 no effect, 100 complete control)
[10] = Postemergence, 62 g ai/ha, scale 0 to 100 (0 no effect, 100 complete control), 13 to 15 days
[11] = 0 to 100 scale where 0 is no effect and 100 is complete control
[12] = 31 g ai/ha, postemergence, visual rating, 13 to 15 days
[13] = 125 g ai/ha, postemergence, visual rating
[14] = Postemergence, 62 g ai/ha, 13 to 15 days
[15] = Postemergence, 31 g ai/ha, scale 0 to 100 (0 no effect, 100 complete control), 13 to 15 days
[16] = Postemergence, 62 g ai/ha, scale 0 to 100 (0 no effect, 100 complete control)
[17] = 125 g ai/ha, 0 to 100 scale where 0 is no effect and 100 is complete control
[18] = 0 to 100 scale, 0 no effect, 100 complete control, approx. 10 days
[19] = 16 g ai/ha, postemergence, visual rating, 13 to 15 days
[20] = Postemergence, 31 g ai/ha, 13 to 15 days

## Clc1cnc(Oc2cccc(Cl)c2-n2cc(Cl)cn2)nc1 [Compound 220]
lambsquarters; [7]
  Plant response rating (0 to 100), Lambsquarters: 15
lambsquarters; [8]
  Lambsquarters plant response rating: 50
lambsquarters; [9]
  Plant response rating, Lambsquarters: 75
lambsquarters; [10]
  Plant response rating, Lambsquarters: 55
Large (Lg) crabgrass [1]; 125 g ai/ha
  Crabgrass, Large plant response rating (0 to 100 scale): 100
Large (Lg) crabgrass [1]; [11]
  Crabgrass, Large plant response rating: 100
chickweed; [7]
  Plant response rating (0 to 100), Chickweed: 65
chickweed; [12]
  Chickweed plant response rating: 70
chickweed; [13]
  Plant response rating, Chickweed: 80
chickweed; [14]
  Plant response rating, Chickweed: 80
Wild oat; [7]
  Plant response rating (0 to 100), Oat, Wild: 5
Wild oat; [8]
  Oat, Wild plant response rating: 25
Wild oat; [9]
  Plant response rating, Oat, Wild: 50
Wild oat; [10]
  Plant response rating, Oat, Wild: 35
Barnyardgrass [2]; [7]
  Plant response rating (0 to 100), Barnyardgrass: 5
Barnyardgrass [2]; [12]
  Barnyardgrass plant response rating: 10
Barnyardgrass [2]; [13]
  Plant response rating, Barnyardgrass: 15
Barnyardgrass [2]; Postemergence, 62 g ai/ha
  Plant response rating, Barnyardgrass: 10
pigweed; 125 g ai/ha
  Pigweed plant response rating: 100
pigweed
  Plant response rating, Pigweed: 100
Barnyardgrass [3]; 125 g ai/ha
  Barnyardgrass plant response rating (0 to 100 scale, 0 is no effect, 100 is complete control): 60
Barnyardgrass [3]; [11]
  Barnyardgrass plant response rating: 100
Barnyardgrass [4]; 125 g ai/ha
  Barnyardgrass plant response rating: 90
Barnyardgrass [4]; 500 g ai/ha
  Plant response rating, Barnyardgrass: 100
Giant foxtail; [7]
  Plant response rating (0 to 100), Foxtail, Giant: 0
Giant foxtail; [12]
  Foxtail, Giant plant response rating: 5
Giant foxtail; [13]
  Plant response rating, Foxtail, Giant: 5
Giant foxtail; [14]
  Plant response rating, Foxtail, Giant: 10
sedge, umbrella
  Plant response rating, Sedge, Umbrella: 90
Large (Lg) crabgrass [5]; [7]
  Plant response rating (0 to 100), Crabgrass, Large: 5
Large (Lg) crabgrass [5]; [12]
  Crabgrass, Large plant response rating: 5
Large (Lg) crabgrass [5]; [13]
  Plant response rating, Crabgrass, Large: 5
Large (Lg) crabgrass [5]; [14]
  Plant response rating, Crabgrass, Large: 5
Barnyardgrass [6]
  Plant response rating, Barnyardgrass: 0
Yellow nutsedge; [7]
  Plant response rating (0 to 100), Nutsedge, Yellow: 10
Yellow nutsedge; [8]
  Nutsedge, Yellow plant response rating: 0
Yellow nutsedge; [9]
  Plant response rating, Nutsedge, Yellow: 5
Yellow nutsedge; [10]
  Plant response rating, Nutsedge, Yellow: 0
rice
  Plant response rating, Rice: 0
morningglory; [7]
  Plant response rating (0 to 100), Morningglory: 15
morningglory; [8]
  Morningglory plant response rating: 50
morningglory; [9]
  Plant response rating, Morningglory: 50
morningglory; [10]
  Plant response rating, Morningglory: 40

## FC(F)Oc1cnn(-c2ccccc2Oc2ncc(Cl)cn2)c1 [Compound 98]
lambsquarters; 125 g ai/ha, postemergence
  Plant response rating (0 to 100), Lambsquarters: 98
lambsquarters; [15]
  Plant response rating, Lambsquarters: 35
lambsquarters; [16]
  Plant response rating, Lambsquarters: 80
Large (Lg) crabgrass [1]; [17]
  Plant response rating, Crabgrass, Large: 100
Large (Lg) crabgrass [1]; [18]
  Crabgrass, Large plant response rating: 100
chickweed; [19]
  Chickweed plant response rating: 30
chickweed; 125 g ai/ha, postemergence
  Plant response rating (0 to 100), Chickweed: 85
chickweed; [20]
  Plant response rating, Chickweed: 50
chickweed; Postemergence, 62 g ai/ha
  Plant response rating, Chickweed: 75
Wild oat; 125 g ai/ha, postemergence
  Plant response rating (0 to 100), Oat, Wild: 20
Wild oat; [15]
  Plant response rating, Oat, Wild: 5
Wild oat; [16]
  Plant response rating, Oat, Wild: 10
Barnyardgrass [2]; [19]
  Barnyardgrass plant response rating: 5
Barnyardgrass [2]; 125 g ai/ha, postemergence
  Plant response rating (0 to 100), Barnyardgrass: 15
Barnyardgrass [2]; [20]
  Plant response rating, Barnyardgrass: 5
Barnyardgrass [2]; Postemergence, 62 g ai/ha
  Plant response rating, Barnyardgrass: 10
pigweed
  Plant response rating, Pigweed: 100
Barnyardgrass [3]; [17]
  Plant response rating, Barnyardgrass: 50
Barnyardgrass [3]; [18]
  Barnyardgrass plant response rating: 100
Barnyardgrass [4]; 125 g ai/ha
  Plant response rating, Barnyardgrass: 80
Barnyardgrass [4]; 500 g ai/ha
  Plant response rating, Barnyardgrass: 90
Giant foxtail; [19]
  Foxtail, Giant plant response rating: 5
Giant foxtail; 125 g ai/ha, postemergence
  Plant response rating (0 to 100), Foxtail, Giant: 10
Giant foxtail; [20]
  Plant response rating, Foxtail, Giant: 5
Giant foxtail; Postemergence, 62 g ai/ha
  Plant response rating, Foxtail, Giant: 5
sedge, umbrella
  Plant response rating, Sedge, Umbrella: 85
Large (Lg) crabgrass [5]; [19]
  Crabgrass, Large plant response rating: 5
Large (Lg) crabgrass [5]; 125 g ai/ha, postemergence
  Plant response rating (0 to 100), Crabgrass, Large: 5
Large (Lg) crabgrass [5]; [20]
  Plant response rating, Crabgrass, Large: 5
Large (Lg) crabgrass [5]; Postemergence, 62 g ai/ha
  Plant response rating, Crabgrass, Large: 5
Barnyardgrass [6]
  Plant response rating, Barnyardgrass: 35
Yellow nutsedge; 125 g ai/ha, postemergence
  Plant response rating (0 to 100), Nutsedge, Yellow: 5
Yellow nutsedge; [15]
  Plant response rating, Nutsedge, Yellow: 10
Yellow nutsedge; [16]
  Plant response rating, Nutsedge, Yellow: 5
rice
  Plant response rating, Rice: 15
morningglory; 125 g ai/ha, postemergence
  Plant response rating (0 to 100), Morningglory: 85
morningglory; [15]
  Plant response rating, Morningglory: 30
morningglory; [16]
  Plant response rating, Morningglory: 65
